The test system of test [1] is Escherichia coli. Put plainly: Antibacterial activity against clinical isolate Escherichia coli K12 J53-ST10 684/18 expressing bla-NDM-1 co-expressing bla-CMY-2 and bla-OXA-10 assessed as inhibition of bacterial growth measured after 20 hrs by broth microdilution assay. Type of test: functional.
Test [2] concerns Klebsiella pneumoniae. Put plainly: Antibacterial activity against clinical isolate Klebsiella pneumoniae ST23213/19 expressing blaNDM-1 co-expressing blaOXA-48/blaSHV-11/blaCTX-M-15 and blaOXA-1 assessed as inhibition of bacterial growth measured after 20 hrs by broth microdilution assay. Type of test: functional.
The test system of test [3] is Escherichia coli. Nature of the test: Antibacterial activity against clinical isolate Escherichia coli K12 J53-ST10 699/15 expressing blaNDM-1 assessed as inhibition of bacterial growth measured after 20 hrs by broth microdilution assay. Type of test: functional.
The test system of test [4] is Klebsiella pneumoniae. Nature of the test: Antibacterial activity against clinical isolate Klebsiella pneumoniae 50/20 expressing blaNDM-5 co-expressing blaTEM-1 and blaSHV-1 assessed as inhibition of bacterial growth measured after 20 hrs by broth microdilution assay. Type of test: functional.
Test [5] deals with Klebsiella pneumoniae. Nature of the test: Antibacterial activity against clinical isolate Klebsiella pneumoniae ST1493/10 expressing blaNDM-1 co-expressing blaCMY-2like/blaTEM-1/blaCTX-M-15/blaSHV-28/blaOXA-1 and blaOXA-9 assessed as inhibition of bacterial growth measured after 20 hrs by broth microdilution assay. Type of test: functional.
Test [6] has as its system Escherichia coli. Put plainly: Antibacterial activity against clinical isolate Escherichia coli K12 J53-ST10 696/17 expressing blaNDM-1 co-expressing blaCMY-4 assessed as inhibition of bacterial growth measured after 20 hrs by broth microdilution assay. Type of test: functional.
Test [7] relates to Escherichia coli. Nature of the test: Antibacterial activity against clinical isolate Escherichia coli K12 J53-ST10 618/15 expressing blaNDM-1 assessed as inhibition of bacterial growth measured after 20 hrs by broth microdilution assay. Type of test: functional.
The subject of test [8] is Klebsiella pneumoniae. Nature of the test: Antibacterial activity against clinical isolate Klebsiella pneumoniae 62/07 expressing blaVIM-19 co-expressing blaSHV-1/blaCTX-M-14 and blaCMY-4 assessed as inhibition of bacterial growth measured after 20 hrs by broth microdilution assay. Type of test: functional.
Test [9] has as its system Acinetobacter baumannii. Put plainly: Antibacterial activity against clinical isolate Acinetobacter baumannii IC 19/09 expressing blaNDM-1 co-expressing blaOXA-64 assessed as inhibition of bacterial growth measured after 20 hrs by broth microdilution assay. Type of test: functional.
In test [10] the test system is Escherichia coli. Put plainly: Antibacterial activity against clinical isolate Escherichia coli ST1012/10 expressing blaNDM-1 co-expressing blaTEM-1/blaCTX-M-15/blaOXA-1 and blaOXA-2 assessed as inhibition of bacterial growth measured after 20 hrs by broth microdilution assay. Type of test: functional.
The subject of test [11] is Escherichia coli. Put plainly: Antibacterial activity against clinical isolate Escherichia coli 371/12 expressing blaNDM-7 co-expressing blaCTX-M-15 and blaOXA-1 assessed as inhibition of bacterial growth measured after 20 hrs by broth microdilution assay. Type of test: functional.
Test [12] deals with Klebsiella pneumoniae. Put plainly: Antibacterial activity against clinical isolate Klebsiella pneumoniae 50/11 expressing blaNDM-1 co-expressing blaTEM-1/blaSHV-28/blaTEM-1/blaCTX-M-15 and blaOXA-1 assessed as inhibition of bacterial growth measured after 20 hrs by broth microdilution assay. Type of test: functional.
Test [13] has as its target 72 kDa type IV collagenase (Homo sapiens, UniProt P08253). Nature of the test: Inhibition of human recombinant MMP-2 CD using OMNIMMP as substrate incubated for 30 mins by fluorescence based analysis.

The structures appear in SMILES notation. Converted amounts (≈) assume the structure as drawn.

Chain of 72 kDa type IV collagenase (P08253 whole entry): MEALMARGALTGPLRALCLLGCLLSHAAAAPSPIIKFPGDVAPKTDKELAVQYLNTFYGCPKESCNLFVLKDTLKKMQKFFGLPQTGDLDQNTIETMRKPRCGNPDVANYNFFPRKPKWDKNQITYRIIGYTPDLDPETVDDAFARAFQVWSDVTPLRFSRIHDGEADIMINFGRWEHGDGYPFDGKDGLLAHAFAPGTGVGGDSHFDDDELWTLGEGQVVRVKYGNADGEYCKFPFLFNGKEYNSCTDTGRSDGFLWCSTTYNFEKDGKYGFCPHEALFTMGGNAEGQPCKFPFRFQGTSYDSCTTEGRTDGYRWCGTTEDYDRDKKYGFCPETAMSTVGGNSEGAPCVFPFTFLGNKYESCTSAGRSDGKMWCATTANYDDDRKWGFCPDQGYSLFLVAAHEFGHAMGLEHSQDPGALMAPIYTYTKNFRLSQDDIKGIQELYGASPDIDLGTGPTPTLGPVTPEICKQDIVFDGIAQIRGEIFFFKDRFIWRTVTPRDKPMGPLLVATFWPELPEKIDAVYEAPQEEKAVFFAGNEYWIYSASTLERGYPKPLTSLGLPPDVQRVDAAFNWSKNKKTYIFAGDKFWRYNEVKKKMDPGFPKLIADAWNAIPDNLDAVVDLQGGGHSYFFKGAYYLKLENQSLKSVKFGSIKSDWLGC

`C[C@@H](O)[C@H]1C(=O)N2C(C(=O)O)=C(S[C@@H]3CN[C@H](C(=O)N(C)C)C3)[C@H](C)[C@H]12` [MEROPENEM]: the MIC in test [1] is 64 µg/mL (≈ 167 µM); in test [2], more than 128 µg/mL; in test [3] it was 32 µg/mL (≈ 83.4 µM); in [4], 64 µg/mL (≈ 167 µM); in [5] it was 128 µg/mL (≈ 334 µM); in test [6], 16 µg/mL (≈ 41.7 µM). The MIC in test [7] was 32 µg/mL (≈ 83.4 µM); in test [8] it was 128 µg/mL (≈ 334 µM); in [9] it was more than 128 µg/mL; in test [10] it was 128 µg/mL (≈ 334 µM); in test [11], 64 µg/mL (≈ 167 µM); in test [12], 64 µg/mL (≈ 167 µM).
Take `O=C(O)[C@H](Cc1ccccc1)NS(=O)(=O)c1ccc(-c2ccccc2)cc1`: the IC50 in [13] stood at 266 nM.

Source of the values: ChEMBL document CHEMBL5365420, “Kinetics, Thermodynamics, and Structural Effects of Quinoline-2-Carboxylates, Zinc-Binding Inhibitors of New Delhi Metallo-β-lactamase-1 Re-sensitizing Multidrug-Resistant Bacteria for Carbapenems” (J Med Chem, 2023).
